Test results taken from patent publication US20210267996A1, “Compounds for inhibition of inflammation” (Children`s Medical Center Corporation, priority 2018, published 2021).

Columns and labels:
ASC specks = experiment: ASC speck formation in LPS-primed THP-1 cells plus nigericin; type: cell-based, human; conditions: for ASC speck formation: 1 hr before nigericin
Experimental: Immunostaining and confocal microscopy: cells grown on coverslips were fixed for 15 min with 4% paraformaldehyde in PBS, permeabilized for 5 min in 0.1% Triton X-100 in PBS and blocked using 5% BSA for 1 hr. Then, cells were stained with the indicated primary antibodies followed by incubation with fluorescent-conjugated secondary antibodies (Jackson ImmunoResearch). Nuclei were counterstained with DAPI (4,6-diamidino-2-phenylindole) (Sigma-Aldrich). Slides were mounted using Aqua-Poly/Mount (Dako). Images were captured using a laser scanning confocal microscope (Olympus Fluoview FV1000 Confocal System) with a 63× water immersion objective and Olympus Fluoview software (Olympus). All confocal images are representative of three independent experiments.
Nigericin activates the assembly of the NLRP3 canonical inflammasome using an adaptor called apoptosis-associated speck-like protein containing a caspase recruitment domain (ASC), which can be visualized in immunofluorescent microscopy as specks. When LPS-primed THP-1 cells were treated with nigericin in the absence of inhibitors, ASC specks were detected in 30% of cells (FIG. 36). As expected, speck formation was not inhibited by z-VAD-fmk, since caspase activation occurs downstream of inflammasome assembly.
(§1) Cell death was determined by CytoTox96 assay. […] Cell death was determined by CytoTox96 assay. […] Shown are immunoblots of whole cell lysates harvested 0.5 hr later. […] Representative images of ASC specks (arrowheads) and mean±s.d. percent of cells with ASC specks analyzed 20 min later (FIG. 47). Whole cell lysates (WCL) and culture supernatants (Sup) were harvested 30 min after adding nigericin and immunoblotted with the indicated antibodies (FIG. 50). Caspase-1 activity was assayed 30 min after adding nigericin using a cell-permeable fluorescence dye FAM-YVAD-FMK (FIG. 52). […] Representative images of ASC specks (arrowheads) and mean±s.d. percent of cells with ASC specks analyzed 20 min later (FIGS. 48 and 49). Whole cell lysates (WCL) and culture supernatants (Sup), harvested 30 min after adding nigericin, were analyzed by immunoblot (FIG. 51). […] The Figures show representative confocal microscopy images and quantification of proportion of cells with GSDMD membrane staining and pyroptotic bubbles. Arrows indicate GSDMD staining of pyroptotic bubbles. […] FIGS. 57 and 58, dose response curve of the effect of Bay 11-7082 on caspase-1 (FIG. 57) and caspase-11 (FIG. 58) activity against a fluorescent peptide substrate. […] (FIG. 60). FIGS. 61 and 62 show dose response curve of the effect of Bay 11-7082 on liposome leakage induced by 0.3 μM human GSDMD-3C (FIG. 61) or mouse GSDMA3-3C (FIG. 62) plus 0.15 μM 3C protease. […] 2-fold dilutions of Bay 11-7082 from 5-40 μM were used. Graphs show the mean±s.d; data are representative of three independent experiments. *P<0.05, **P<0.01.

Human GSDMD = target: T1, Human GSDMD (Homo sapiens, UniProt P57764); experiment: Liposome leakage assay (Tb3+/DPA), GSDMD plus caspase-11; type: biochemical; conditions: for IC50: WT GSDMD, caspase-11-triggered, read-out: IC50 of liposome leakage
T1 construct: His6-MBP (N, cleaved yes); made in house; host or cells: E. coli BL21 (DE3) for GSDMD; Sf9 for caspase-11
T1 sequence (P57764 1-484): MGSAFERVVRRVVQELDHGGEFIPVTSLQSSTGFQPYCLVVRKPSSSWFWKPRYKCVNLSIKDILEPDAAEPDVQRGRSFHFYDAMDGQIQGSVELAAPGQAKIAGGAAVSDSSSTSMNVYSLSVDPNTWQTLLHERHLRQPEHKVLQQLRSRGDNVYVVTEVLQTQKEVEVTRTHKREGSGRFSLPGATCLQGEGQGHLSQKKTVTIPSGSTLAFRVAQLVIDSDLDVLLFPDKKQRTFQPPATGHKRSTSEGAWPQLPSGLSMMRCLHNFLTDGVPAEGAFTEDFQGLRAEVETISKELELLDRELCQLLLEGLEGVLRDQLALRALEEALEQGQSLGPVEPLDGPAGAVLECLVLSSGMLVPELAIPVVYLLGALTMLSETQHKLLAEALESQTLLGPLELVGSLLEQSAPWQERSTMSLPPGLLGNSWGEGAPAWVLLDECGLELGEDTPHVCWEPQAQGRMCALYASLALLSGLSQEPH
Experimental: The lipid mixture was suspended in 1 mL Buffer A (20 mM HEPES, 150 mM NaCl, 50 mM sodium citrate, and 15 mM TbCl3) for 3 min. The suspension was pushed through 100 nm Whatman® Nuclepore™ Track-Etched Membrane 30 times to obtain homogeneous liposomes. The filtered suspension was purified by size exclusion column (Superose 6, 10/300 GL) in Buffer B (20 mM HEPES, 150 mM NaCl) to remove TbCl3 outside liposomes. […] The liposomes are diluted to 50 μM with Buffer C (20 mM HEPES, 150 mM NaCl and 50 μM DPA) for use in high-throughput screening.

caspase-11 = target: T2, caspase-11 (Mus musculus, UniProt P70343); experiment: Caspase-11 inhibition assay (Ac-YVAD-AMC); type: biochemical
T2 construct: made in house; host or cells: Sf9 (baculovirus)
T2 sequence (P70343 81-373): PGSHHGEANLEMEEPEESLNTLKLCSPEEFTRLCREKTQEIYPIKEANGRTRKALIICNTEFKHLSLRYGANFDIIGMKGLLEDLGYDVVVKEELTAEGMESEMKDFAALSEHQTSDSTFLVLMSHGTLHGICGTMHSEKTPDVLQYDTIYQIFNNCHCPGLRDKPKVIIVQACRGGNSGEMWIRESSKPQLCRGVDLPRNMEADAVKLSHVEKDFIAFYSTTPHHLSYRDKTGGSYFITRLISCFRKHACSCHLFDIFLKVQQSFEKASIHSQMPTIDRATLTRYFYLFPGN
Experimental: Caspase-1 and caspase-11 inhibition assays: the fluorogenic assay for caspase-1 and caspase-11 activity is based on release of 7-amino-4-methylcoumarin (AMC) from the caspase substrate Ac-YVAD-AMC. Compounds (8 nM-50 μM) were incubated with 0.5 U of caspase-1 or caspase-11 for 30 min in assay buffer (20 mM HEPES, 150 mM NaCl) in 384-well plates (Corning 3820) before addition of Ac-YVAD-AMC (40 μM) to initiate the reactions. Reactions were monitored in a SpectraMax M5 plate reader (Molecular Devices, Sunnyvale, Calif. USA) with excitation/emission wavelengths at 350/460 nm. The fluorescence intensity of each reaction was recorded every 2 min for 2 hrs.
Fluorescence intensity at 460 nm was measured after excitation at 350 nm.

caspase-1 = experiment: Caspase-1 activity assay in cells (FAM-YVAD-FMK); type: cell-based, human; conditions: 30 μM, 30 min after nigericin
Experimental: Caspase-1 activity assay in cells: to measure caspase-1 activation, THP-1 cells were seeded into 96-well plates and differentiated with PMA. After the indicated treatments, cells were incubated with a fluorescent active caspase-1 substrate FAM-YVAD-FMK (Immunochemistry Technologies). Samples were read on a BioTek Synergy 2 plate reader.
as §1

Row | Structure (SMILES) | ASC puncta (ASC specks; 1 μM with copper gluconate) | cells with ASC specks (ASC specks; 30 μM, 1 hour before nigericin) | ASC speck formation (ASC specks; 30 μM) | IC50 (Human GSDMD) | incubation time to inhibition of liposome leakage (Human GSDMD; time course, preincubation 2-90 min) | effect of copper gluconate (Cu2+) on inhibition of liposome leakage (Human GSDMD; with Cu2+) | IC50 (caspase-11) | effect of Cu(II) on caspase-11 inhibition (caspase-11; with Cu(II)) | caspase-1 activity in intact cells (caspase-1) | times less active than disulfiram at inhibiting liposome leakage (Human GSDMD; GSDMD plus caspase-11) | times less active against caspase-11 than disulfiram (caspase-11)
1 | CCN(CC)C(=S)SSC(=S)N(CC)CC [C-23, Tetraethylthiuram disulfide] | reduced ASC puncta | about 20 % of cells | inhibited ASC speck formation, but not completely | ~0.3 µM | ≤ 2 min | only weakly increased | 730 ± 70 nM | did not strongly change | only partially reduced | – | –
2 | Cc1ccc(S(=O)(=O)/C=C/C#N)cc1 [Bay 11-7082] | – | – | inhibited ASC speck formation, but not completely | 6.81 ± 0.1 µM | – | – | – | – | only partially reduced | 23 fold | about 3 fold
